# Data as given in ChEMBL document CHEMBL1201862, “PubChem BioAssay data set” (2004).
#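 Each compound was tested at five concentrations against cells in 96-well plates for 48 hours. Abbreviation: GI50, concentration required for 50% inhibition of growth.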 The source made the active and inactive calls. Rule as the data show it: active = GI50 up to about 1.1 µM and inactive = higher.
# What was measured:
# Test in all cases: DTP human tumour cell line panel, 48 h
# EKVX = system: EKVX
# CAKI-1 = system: CAKI-1
# SK-MEL-28 = system: SK-MEL-28
# OVCAR-5 = system: OVCAR-5
# LXFL 529 = system: LXFL 529
# XF498 = system: XF498
# A498 = system: A498
# A549 = system: A549
# HCC 2998 = system: HCC 2998
# SF-295 = system: SF-295
# ACHN = system: ACHN
# UACC-257 = system: UACC-257
# KM12 = system: KM12
# DMS-114 = system: DMS-114
# SK-OV-3 = system: SK-OV-3
# OVCAR-4 = system: OVCAR-4
# MOLT-4 = system: MOLT-4
# SNB-75 = system: SNB-75
# NCI-H226 = system: NCI-H226
# M14 = system: M14
# LOX IMVI = system: LOX IMVI
# OVCAR-3 = system: OVCAR-3
# DMS-273 = system: DMS-273
# UACC-62 = system: UACC-62
# SF-539 = system: SF-539
# DLD-1 = system: DLD-1
# RPMI-8226 = system: RPMI-8226
# 786-0 = system: 786-0
# HL-60 = system: HL-60
# COLO 205 = system: COLO 205
# HCT-15 = system: HCT-15
# NCI-H522 = system: NCI-H522
# SK-MEL-2 = system: SK-MEL-2
# KM-20L2 = system: KM-20L2
# TK-10 = system: TK-10
# HCT-116 = system: HCT-116
# SN12C = system: SN12C
# UO-31 = system: UO-31
# CCRF-CEM = system: CCRF-CEM
# HT-29 = system: HT-29
# K562 = system: K562
# RXF 631 = system: RXF 631
# U-251 = system: U-251
# SF-268 = system: SF-268
# SK-MEL-5 = system: SK-MEL-5
# Malme-3M = system: Malme-3M
# SW-620 = system: SW-620
# HOP-62 = system: HOP-62
# SNB-19 = system: SNB-19
# IGROV-1 = system: IGROV-1
# NCI-H460 = system: NCI-H460
# OVCAR-8 = system: OVCAR-8
# NCI-H23 = system: NCI-H23
# MCF7 = system: MCF7
# PC-3 = system: PC-3
# MDA-N = system: MDA-N
# M19-MEL = system: M19-MEL
# RXF 393 = system: RXF 393
# SNB-78 = system: SNB-78
# HOP-92 = system: HOP-92
# DU-145 = system: DU-145
# BT-549 = system: BT-549
# MDA-MB-435 = system: MDA-MB-435
# NCI/ADR-RES = system: NCI/ADR-RES
# HOP-18 = system: HOP-18
# MDA-MB-231 = system: MDA-MB-231
# SR = system: SR
structure (smiles),measurement,setting,value
COc1ccc(/N=N/C(C(=O)c2ccccc2)C(=O)c2ccccc2)cc1,GI50,EKVX,21.3 µM (inactive)
same,GI50,CAKI-1,32.5 µM (inactive)
same,GI50,SK-MEL-28,26.4 µM (inactive)
same,GI50,OVCAR-5,33.8 µM (inactive)
same,GI50,LXFL 529,24.8 µM (inactive)
same,GI50,XF498,18.2 µM (inactive)
same,GI50,A498,35.7 µM (inactive)
same,GI50,A549,21.3 µM (inactive)
same,GI50,HCC 2998,44.7 µM (inactive)
same,GI50,SF-295,21.3 µM (inactive)
same,GI50,ACHN,24.7 µM (inactive)
same,GI50,UACC-257,24.5 µM (inactive)
same,GI50,KM12,27 µM (inactive)
same,GI50,DMS-114,19.4 µM (inactive)
same,GI50,SK-OV-3,45.9 µM (inactive)
same,GI50,OVCAR-4,30.8 µM (inactive)
same,GI50,MOLT-4,14.7 µM (inactive)
same,GI50,SNB-75,20.6 µM (inactive)
same,GI50,NCI-H226,8.67 µM (inactive)
same,GI50,M14,15.3 µM (inactive)
same,GI50,LOX IMVI,17.8 µM (inactive)
same,GI50,OVCAR-3,17.2 µM (inactive)
same,GI50,DMS-273,16.1 µM (inactive)
same,GI50,UACC-62,16 µM (inactive)
same,GI50,SF-539,25.4 µM (inactive)
same,GI50,DLD-1,23.9 µM (inactive)
same,GI50,RPMI-8226,13.4 µM (inactive)
same,GI50,786-0,19.9 µM (inactive)
same,GI50,HL-60,10.4 µM (inactive)
same,GI50,COLO 205,42.1 µM (inactive)
same,GI50,HCT-15,15.1 µM
same,GI50,NCI-H522,16.2 µM (inactive)
same,GI50,SK-MEL-2,21.9 µM (inactive)
same,GI50,KM-20L2,27.2 µM (inactive)
same,GI50,TK-10,52 µM (inactive)
same,GI50,HCT-116,13.6 µM (inactive)
same,GI50,SN12C,21 µM (inactive)
same,GI50,UO-31,16.9 µM (inactive)
same,GI50,CCRF-CEM,8 µM (inactive)
same,GI50,HT-29,23 µM (inactive)
same,GI50,K562,19.1 µM (inactive)
same,GI50,RXF 631,31.4 µM (inactive)
same,GI50,U-251,15.7 µM (inactive)
same,GI50,SF-268,23.8 µM (inactive)
same,GI50,SK-MEL-5,14.1 µM (inactive)
same,GI50,Malme-3M,24.9 µM (inactive)
same,GI50,SW-620,19.3 µM (inactive)
same,GI50,HOP-62,23.3 µM (inactive)
same,GI50,SNB-19,17.7 µM (inactive)
same,GI50,IGROV-1,34.7 µM (inactive)
same,GI50,NCI-H460,18.6 µM (inactive)
same,GI50,OVCAR-8,22.4 µM (inactive)
same,GI50,NCI-H23,18.3 µM (inactive)
O=C1C=C(c2c(O)ccc3ccccc23)c2ccccc2C1=O,GI50,EKVX,3.15 µM (inactive)
same,GI50,CAKI-1,7.93 µM (inactive)
same,GI50,SK-MEL-28,9.95 µM (inactive)
same,GI50,OVCAR-5,10.7 µM (inactive)
same,GI50,LXFL 529,1.59 µM (inactive)
same,GI50,A498,8.51 µM (inactive)
same,GI50,MCF7,< 0.01 µM (active)
same,GI50,A549,5.86 µM (inactive)
same,GI50,PC-3,2.12 µM (inactive)
same,GI50,HCC 2998,11.7 µM (inactive)
same,GI50,SF-295,4.19 µM (inactive)
same,GI50,ACHN,3.44 µM (inactive)
same,GI50,UACC-257,2.39 µM (inactive)
same,GI50,KM12,3.77 µM (inactive)
same,GI50,DMS-114,2.04 µM (inactive)
same,GI50,MDA-N,2 µM (inactive)
same,GI50,SK-OV-3,10.7 µM (inactive)
same,GI50,OVCAR-4,1.92 µM (inactive)
same,GI50,MOLT-4,1.72 µM (inactive)
same,GI50,SNB-75,3.87 µM (inactive)
same,GI50,M19-MEL,1.64 µM (inactive)
same,GI50,RXF 393,2.06 µM (inactive)
same,GI50,NCI-H226,9.77 µM (inactive)
same,GI50,M14,4.69 µM (inactive)
same,GI50,SNB-78,2.26 µM (inactive)
same,GI50,LOX IMVI,1.77 µM (inactive)
same,GI50,OVCAR-3,2.32 µM (inactive)
same,GI50,DMS-273,3.46 µM (inactive)
same,GI50,UACC-62,2.35 µM (inactive)
same,GI50,SF-539,2.09 µM (inactive)
same,GI50,HOP-92,2.22 µM (inactive)
same,GI50,DLD-1,3.76 µM (inactive)
same,GI50,RPMI-8226,2.35 µM (inactive)
same,GI50,DU-145,10.9 µM (inactive)
same,GI50,786-0,2.15 µM (inactive)
same,GI50,HL-60,2.65 µM (inactive)
same,GI50,COLO 205,6.76 µM (inactive)
same,GI50,HCT-15,3.57 µM
same,GI50,NCI-H522,1.61 µM (inactive)
same,GI50,SK-MEL-2,4.68 µM (inactive)
same,GI50,KM-20L2,15.4 µM (inactive)
same,GI50,BT-549,2.48 µM (inactive)
same,GI50,TK-10,12.1 µM (inactive)
same,GI50,HCT-116,2.15 µM (inactive)
same,GI50,SN12C,2.58 µM (inactive)
same,GI50,UO-31,2.24 µM (inactive)
same,GI50,CCRF-CEM,1.86 µM (inactive)
same,GI50,HT-29,6.97 µM (inactive)
same,GI50,MDA-MB-435,3.01 µM (inactive)
same,GI50,K562,3.08 µM (inactive)
same,GI50,NCI/ADR-RES,3.15 µM (inactive)
same,GI50,RXF 631,6.56 µM (inactive)
same,GI50,U-251,2.21 µM (inactive)
same,GI50,HOP-18,8.81 µM (inactive)
same,GI50,SF-268,6.12 µM (inactive)
same,GI50,SK-MEL-5,2.51 µM (inactive)
same,GI50,Malme-3M,5.2 µM (inactive)
same,GI50,MDA-MB-231,3.85 µM (inactive)
same,GI50,SW-620,2.09 µM (inactive)
same,GI50,HOP-62,13 µM (inactive)
same,GI50,SNB-19,5.96 µM (inactive)
same,GI50,IGROV-1,3.3 µM (inactive)
same,GI50,NCI-H460,6.32 µM (inactive)
same,GI50,OVCAR-8,1.89 µM (inactive)
same,GI50,NCI-H23,2.15 µM (inactive)
O/N=C1\C(=C\c2ccc3c(c2)OCCO3)CCCC1C(NO)c1ccc2c(c1)OCCO2 (configuration not stated),GI50,EKVX,25.2 µM (inactive)
same,GI50,CAKI-1,32.4 µM (inactive)
same,GI50,SK-MEL-28,18.5 µM (inactive)
same,GI50,OVCAR-5,32.6 µM (inactive)
same,GI50,LXFL 529,20.2 µM (inactive)
same,GI50,A498,16 µM (inactive)
same,GI50,A549,25.2 µM (inactive)
same,GI50,HCC 2998,22.6 µM (inactive)
same,GI50,SF-295,31 µM (inactive)
same,GI50,ACHN,34.5 µM (inactive)
same,GI50,UACC-257,20.4 µM (inactive)
same,GI50,KM12,21.4 µM (inactive)
same,GI50,DMS-114,20.1 µM (inactive)
same,GI50,SK-OV-3,49.9 µM (inactive)
same,GI50,OVCAR-4,30.1 µM (inactive)
same,GI50,MOLT-4,10.1 µM (inactive)
same,GI50,SNB-75,28.7 µM (inactive)
same,GI50,M19-MEL,24.9 µM (inactive)
same,GI50,RXF 393,25.8 µM (inactive)
same,GI50,M14,17.7 µM (inactive)
same,GI50,SNB-78,33.9 µM (inactive)
same,GI50,LOX IMVI,15.7 µM (inactive)
same,GI50,OVCAR-3,18.3 µM (inactive)
same,GI50,DMS-273,19.2 µM (inactive)
same,GI50,UACC-62,16.5 µM (inactive)
same,GI50,SF-539,13.4 µM (inactive)
same,GI50,HOP-92,23.3 µM (inactive)
same,GI50,DLD-1,31.6 µM (inactive)
same,GI50,RPMI-8226,16.3 µM (inactive)
same,GI50,786-0,32.1 µM (inactive)
same,GI50,HL-60,14.7 µM (inactive)
same,GI50,SR,14.3 µM (inactive)
same,GI50,COLO 205,32.4 µM (inactive)
same,GI50,HCT-15,22.5 µM
same,GI50,NCI-H522,13.8 µM (inactive)
same,GI50,KM-20L2,19 µM (inactive)
same,GI50,TK-10,24.2 µM (inactive)
same,GI50,HCT-116,18.7 µM (inactive)
same,GI50,SN12C,14 µM (inactive)
same,GI50,UO-31,26.8 µM (inactive)
same,GI50,CCRF-CEM,16.6 µM (inactive)
same,GI50,HT-29,17.5 µM (inactive)
same,GI50,RXF 631,32.9 µM (inactive)
same,GI50,U-251,19.3 µM (inactive)
same,GI50,HOP-18,43.4 µM (inactive)
same,GI50,SF-268,18.2 µM (inactive)
same,GI50,SK-MEL-5,16.4 µM (inactive)
same,GI50,Malme-3M,25.4 µM (inactive)
same,GI50,SW-620,32.2 µM (inactive)
same,GI50,HOP-62,22 µM (inactive)
same,GI50,SNB-19,38.7 µM (inactive)
same,GI50,IGROV-1,36.1 µM (inactive)
same,GI50,NCI-H460,20.5 µM (inactive)
same,GI50,OVCAR-8,31.4 µM (inactive)
